Assay results as given in patent publication US11739074B2, “Ras inhibitors” (Revolution Medicines, Inc., priority 2019, dated 2023).
pEC50, pIC50: −log10 of the molar value. Like-named read-outs stand apart in the source and are kept apart here.

Experiments:
Format in all cases: cell-based
AsPC-1 (K-Ras G12D) [1] = test: Potency assay: pERK in AsPC-1 cells; settings: Homo sapiens
NCI-H358 (K-Ras G12C) = test: CellTiter-Glo cell viability assay, H358; settings: Homo sapiens, NCI-H358, 120 h
Method in brief: (§1)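 Direct compound addition to plated cells; 5-day exposure; ~30 min RT equilibration; CellTiter-Glo luminescence. Normalization: (sample/avg DMSO)*100; 4-parameter logistic curve fit.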

AsPC-1 (K-Ras G12D) [2] = test: CellTiter-Glo cell viability assay, AsPC-1; settings: Homo sapiens, ASPC1, 120 h
Method in brief: as §1

[3] = ASPC1, read-out: pERK EC50 (AsPC-1 KRAS G12D)
[4] = read-out: H358 Cell Viability IC50, NCI-H358, K-Ras G12C, 5-day treatment
[5] = read-out: AsPC-1 Cell Viability IC50, AsPC-1, K-Ras G12D, 5-day treatment
[6] = ASPC1, AsPC-1 cells, K-Ras G12D, read-out: pERK EC50 (AsPC-1 KRAS G12D)
[7] = NCI-H358, K-Ras G12C, 5-day treatment, read-out: H358 Cell Viability IC50
[8] = AsPC-1, K-Ras G12D, 5-day treatment, read-out: AsPC-1 Cell Viability IC50

SMILES | pEC50 (AsPC-1 (K-Ras G12D) [1]; [3]) | pIC50 (NCI-H358 (K-Ras G12C); [4]) | pIC50 (AsPC-1 (K-Ras G12D) [2]; [5]) | pEC50 (AsPC-1 (K-Ras G12D) [1]; [6]) | pIC50 (NCI-H358 (K-Ras G12C); [7]) | pIC50 (AsPC-1 (K-Ras G12D) [2]; [8])
CCn1c(-c2cccnc2[C@H](C)OC)c2c3cc(ccc31)-c1cc(O)cc(c1)C[C@H](NC(=O)[C@H](C(C)C)N(C)C(=O)CN(C)C(=O)[C@@H]1CN1CCCC#N)C(=O)N1CCC[C@H](N1)C(=O)OCC(C)(C)C2 (stereo partly drawn) [Compound 274] | > 5.30 | > 8.00 | 6.00 to 7.00 |  |  | 
CCn1c(-c2cccnc2[C@H](C)OC)c2c3cc(ccc31)-c1cc(O)cc(c1)C[C@H](NC(=O)[C@H](C(C)C)N(C)C(=O)CN(C)C(=O)[C@@H]1CN1C1COC1)C(=O)N1CCC[C@H](N1)C(=O)OCC(C)(C)C2 (stereo partly drawn) [Compound 276] | > 5.30 | 7.00 to 8.00 | 5.00 to 6.00 |  |  | 
CCn1c(-c2cccnc2[C@H](C)OC)c2c3cc(ccc31)-c1cc(O)cc(c1)C[C@H](NC(=O)[C@H](C(C)C)N(C)C(=O)CN(C)C(=O)[C@H]1CN1CC1COC1)C(=O)N1CCC[C@H](N1)C(=O)OCC(C)(C)C2 (stereo partly drawn) [Compound 277] | > 5.30 | 7.00 to 8.00 | 6.00 to 7.00 |  |  | 
CCn1c(-c2cccnc2[C@H](C)OC)c2c3cc(ccc31)-c1cc(O)cc(c1)C[C@H](NC(=O)[C@H](C(C)C)N(C)C(=O)CN(C)C(=O)[C@H]1CN1CC1(C)COC1)C(=O)N1CCC[C@H](N1)C(=O)OCC(C)(C)C2 (stereo partly drawn) [Compound 279] | > 5.30 | > 8.00 | 6.00 to 7.00 |  |  | 
CCn1c(-c2cccnc2[C@H](C)OC)c2c3cc(ccc31)-c1cc(O)cc(c1)C[C@H](NC(=O)[C@H](C(C)C)N(C)C(=O)CN(C)C(=O)[C@@H]1CN1CC1(C)COC1)C(=O)N1CCC[C@H](N1)C(=O)OCC(C)(C)C2 (stereo partly drawn) [Compound 280] | > 5.30 | > 8.00 | 5.00 to 6.00 |  |  | 
CCn1c(-c2cccnc2[C@H](C)OC)c2c3cc(ccc31)-c1cc(O)cc(c1)C[C@H](NC(=O)[C@H](C(C)C)N(C)C(=O)CN(C)C(=O)[C@@H]1N[C@H]1C1COC1)C(=O)N1CCC[C@H](N1)C(=O)OCC(C)(C)C2 [Compound 283] | > 5.30 | 7.00 to 8.00 | 6.00 to 7.00 |  |  | 
CCn1c(-c2cccnc2[C@H](C)OC)c2c3cc(ccc31)-c1cc(O)cc(c1)C[C@H](NC(=O)[C@H](C(C)C)N(C)C(=O)CN(C)C(=O)[C@H]1C[C@@H]3N[C@@H]3C1)C(=O)N1CCC[C@H](N1)C(=O)OCC(C)(C)C2 [Compound 285] |  |  |  | > 5.30 | 6.00 to 7.00 | 7.00 to 8.00
CCn1c(-c2cccnc2[C@H](C)OC)c2c3cc(ccc31)-c1cc(O)cc(c1)C[C@H](NC(=O)[C@H](C(C)C)N(C)C(=O)CN(C)C(=O)[C@@H]1N[C@@H]1C1CCC1)C(=O)N1CCC[C@H](N1)C(=O)OCC(C)(C)C2 [Compound 287] | > 5.30 | 7.00 to 8.00 | 6.00 to 7.00 |  |  | 
CCn1c(-c2cccnc2[C@H](C)OC)c2c3cc(ccc31)-c1cc(O)cc(c1)C[C@H](NC(=O)[C@H](C(C)C)N(C)C(=O)CN(C)C(=O)[C@H]1N[C@H]1C1CCC1)C(=O)N1CCC[C@H](N1)C(=O)OCC(C)(C)C2 [Compound 288] | > 5.30 | 7.00 to 8.00 | 6.00 to 7.00 |  |  | 
CCn1c(-c2cccnc2[C@H](C)OC)c2c3cc(ccc31)-c1csc(n1)C[C@H](NC(=O)[C@H](C(C)C)N(C)C(=O)N1CCC[C@H](N(C)C(=O)[C@@H]3CN3)C1)C(=O)N1CCC[C@H](N1)C(=O)OCC(C)(C)C2 [Compound 292] |  |  |  | > 5.30 | 7.00 to 8.00 | 5.00 to 6.00
CCn1c(-c2cccnc2[C@H](C)OC)c2c3cc(ccc31)-c1csc(n1)C[C@H](NC(=O)[C@H](C(C)C)N(C)C(=O)N(C)CC1CN(C(=O)[C@H]3CN3)C1)C(=O)N1CCC[C@H](N1)C(=O)OCC(C)(C)C2 [Compound 293] |  |  |  | > 5.30 | 7.00 to 8.00 | 5.00 to 6.00
CCn1c(-c2cccnc2[C@H](C)OC)c2c3cc(ccc31)-c1csc(n1)C[C@H](NC(=O)[C@H](C(C)C)N(C)C(=O)N(C)CC1CN(C(=O)[C@@H]3CN3)C1)C(=O)N1CCC[C@H](N1)C(=O)OCC(C)(C)C2 [Compound 294] |  |  |  | > 5.30 | 6.00 to 7.00 | 5.00 to 6.00
CCn1c(-c2cccnc2[C@H](C)OC)c2c3cc(ccc31)-c1csc(n1)C[C@H](NC(=O)[C@H](C(C)C)N(C)C(=O)N(C)[C@H]1CCN(C(=O)[C@H]3CN3)C1)C(=O)N1CCC[C@H](N1)C(=O)OCC(C)(C)C2 [Compound 296] |  |  |  | > 5.30 | 7.00 to 8.00 | 5.00 to 6.00
CCn1c(-c2cccnc2[C@H](C)OC)c2c3cc(ccc31)-c1csc(n1)C[C@H](NC(=O)[C@H](C(C)C)N(C)C(=O)N1CCN(C(=O)[C@H]3CN3)[C@@H](C)C1)C(=O)N1CCC[C@H](N1)C(=O)OCC(C)(C)C2 [Compound 297] |  |  |  | > 5.30 | 7.00 to 8.00 | 6.00 to 7.00
